Measurements: patent US11578130B2, “Regulatable chimeric antigen receptor” (Novartis AG, priority 2013, dated 2023)

Experiments:
Type in all cases: in vivo, human
[1] = test system: PD-1-positive CD4, CD8 and PD-1-negative CD4 T cells; test: FACS analysis of PBMC for PD-1-positive and PD-1-negative T cells after RAD001 treatment; settings: adjusted for differences in baseline PD-1 expression; for decrease in PD-1-positive CD8 T cells: pooled RAD001 cohort compared to placebo cohort
[2] = Clinical trial: RAD001 trough levels in blood
H3N2 A/Victoria/210/2009 = test: Clinical trial: hemagglutination inhibition titers and seroconversion, vaccine strain A/H3N2
Method: The trial was observer-blind because the placebo in the RAD001 0.5 mg daily and 20 mg weekly cohorts differed slightly from the RAD001 tablets in those cohorts. […] The treatment duration for all cohorts was 6 weeks during which time subjects underwent safety evaluations in the clinic every 2 weeks. After subjects had been dosed for 4 weeks, RAD001 steady state levels were measured pre-dose and at one hour post dose. After completing the 6 week course of study drug, subjects were given a 2 week drug free break to reverse any possible RAD001-induced immunosuppression, and then were given a 2012 seasonal influenza vaccination (Agrippal®, Novartis Vaccines and Diagnostics, Siena, Italy) containing the strains H1N1 A/California/07/2009, H3N2 A/Victoria/210/2009, B/Brisbane/60/2008. Four weeks after influenza vaccination, subjects had serum collected for influenza titer measurements. Antibody titers to the 3 influenza vaccine strains as well as to 2 heterologous strains (A/H1N1 strain A/New Jersey/8/76 and A/H3N2 strain A/Victoria/361/11) were measured by standard hemagglutination inhibition assay (Kendal, A P et al. (1982) Concepts and procedures for laboratory-based influenza surveillance. Atlanta: Centers for Disease Control and Prevention B17-B35).
The ability of RAD001 to improve immune function in elderly volunteers was evaluated by measuring the serologic response to the 2012 seasonal influenza vaccine. The hemagglutination inhibition (HI) geometric mean titers (GMT) to each of the 3 influenza vaccine strains at baseline and 4 weeks after influenza vaccination are provided in Table 22. The primary analysis variable was the HI GMT ratio (4 weeks post vaccination/baseline). […] This endpoint was chosen because a 1.2-fold increase in the influenza GMT ratio induced by the MF-59 vaccine adjuvant was associated with a decrease in influenza illness (Iob, A et al. (2005) Epidemiol Infect 133:687-693).
Rates of seroconversion 4 weeks after influenza vaccination were also evaluated. Seroconversion was defined as the change from a negative pre-vaccination titer (i.e., HI titer <1:10) to post-vaccination HI titer ≥1:40 or at least 4-fold increase from a non-negative (≥1:10) pre-vaccination HI titer.

[3] = test system: influenza vaccine strains; test: Clinical trial: serologic response to 2012 seasonal influenza vaccine, primary endpoint across the 3 vaccine strains (HI GMT ratio); settings: for primary endpoint of the study (HI GMT ratio versus placebo): ITT population
[4] = test system: A/H1N1/California/07/2009; test: Clinical trial: serum IgG and IgM specific for A/H1N1/California/07/2009; settings: RAD001 versus placebo treated cohorts
Method: Levels of IgG and IgM specific for the A/H1N1/California/07/2009 were measured in serum samples taken before and 4 weeks after influenza vaccination as described previously (Spensieri, F. et al. (2013) Proc. Natl. Acad. Sci. USA 110:14330-14335). Results were expressed as fluorescence intensity.

[5] = Clinical trial in elderly volunteers: adverse events, safety and tolerability; settings: RAD001 0.5 mg daily, N = 53

CO[C@H]1C[C@@H]2CC[C@@H](C)[C@@](O)(O2)C(=O)C(=O)N2CCCC[C@H]2C(=O)O[C@H]([C@H](C)C[C@@H]2CC[C@@H](OCCO)[C@H](OC)C2)CC(=O)[C@H](C)/C=C(\C)[C@@H](O)[C@@H](OC)C(=O)[C@H](C)C[C@H](C)/C=C/C=C/C=C/1C [RAD001, (1R,9S,12S,15R,16E,18R,19R,21R,23S,24E,26E,28E,30S,32S,35R)-1,18-dihydroxy-12-{(1R)-2-[(1S,3R,4R)-4-(2-hydroxyethoxy)-3-methoxycyclohexyl]-1-methylethyl}-19,30-dimethoxy-15,17,21,23,29,35-hexamethyl-11,36-dioxa-4-aza-tricyclo[30.3.1.04,9]hexatriaconta-16,24,26,28-tetraene-2,3,10,14,20-pentaone]
decrease in PD-1-positive CD8 T cells ([1]; week 6): 37.4%
decrease in PD-1+ CD4 T cells ([1]; week 6, pooled RAD cohort compared to placebo cohort): 30.2%
decrease in PD-1-positive CD8 T cells ([1]; week 12): 41.4%
decrease in PD-1-positive CD4 T cells ([1]; week 12, pooled RAD cohort compared to placebo cohort): 32.7%
average RAD001 trough level ([2]; 5 mg weekly, 0.3 ng/ml is the lower limit of quantification): below detection limits
trough level of study regimens relative to approved regimens, fold lower ([2]; dosing regimens used in the immunization study): 3-20 fold
HI GMT, A/H3N2 (H3N2 A/Victoria/210/2009; Baseline (2 weeks prior to influenza vaccination), RAD001 0.5 mg daily, N = 50): 106.8
HI GMT, A/H3N2 (H3N2 A/Victoria/210/2009; Baseline (2 weeks prior to influenza vaccination), RAD001 5 mg weekly, N = 49): 126.04
HI GMT, A/H3N2 (H3N2 A/Victoria/210/2009; Baseline (2 weeks prior to influenza vaccination), RAD001 20 mg weekly, N = 49): 137.1
Percent of subjects with seroconversion to influenza 4 weeks after vaccination, H3N2 (H3N2 A/Victoria/210/2009; Intention to Treat Population, 0.5 mg, N = 48): 27%
Percent of subjects with seroconversion to influenza 4 weeks after vaccination, H3N2 (H3N2 A/Victoria/210/2009; Intention to Treat Population, 5 mg, N = 49): 24%
Percent of subjects with seroconversion to influenza 4 weeks after vaccination, H3N2 (H3N2 A/Victoria/210/2009; Intention to Treat Population, 20 mg, N = 48): 25%
GMT ratio (week 4 post vaccination/baseline), A/H3N2 (H3N2 A/Victoria/210/2009; RAD001 0.5 mg daily, N = 50): 2.1
GMT ratio (week 4 post vaccination/baseline), A/H3N2 (H3N2 A/Victoria/210/2009; RAD001 5 mg weekly, N = 49): 2.0
GMT ratio (week 4 post vaccination/baseline), A/H3N2 (H3N2 A/Victoria/210/2009; RAD001 20 mg weekly, N = 49): 2.1
Percent of subjects with seroconversion to influenza 4 weeks after vaccination, H3N2 (H3N2 A/Victoria/210/2009; Subjects with Baseline Titers <=40, 0.5 mg): 64%
Percent of subjects with seroconversion to influenza 4 weeks after vaccination, H3N2 (H3N2 A/Victoria/210/2009; Subjects with Baseline Titers <=40, 5 mg): 53%
Percent of subjects with seroconversion to influenza 4 weeks after vaccination, H3N2 (H3N2 A/Victoria/210/2009; Subjects with Baseline Titers <=40, 20 mg): 71%
HI GMT, A/H3N2 (H3N2 A/Victoria/210/2009; Week 4 after influenza vaccination, RAD001 0.5 mg daily, N = 50): 194.4
HI GMT, A/H3N2 (H3N2 A/Victoria/210/2009; Week 4 after influenza vaccination, RAD001 5 mg weekly, N = 49): 223.0
HI GMT, A/H3N2 (H3N2 A/Victoria/210/2009; Week 4 after influenza vaccination, RAD001 20 mg weekly, N = 49): 223.0
primary endpoint of the study (HI GMT ratio versus placebo) ([3]; RAD001 0.5 mg daily or 5 mg weekly): met the GMT primary endpoint
primary endpoint of the study (HI GMT ratio versus placebo) ([3]; RAD001 20 mg weekly): but not higher dose (20 mg weekly) cohort met the primary endpoint
increase in influenza titers in subgroup ([3]; human, in vivo): greater RAD001-associated increase in titers than did the ITT population
post-vaccination anti-influenza IgM and IgG levels [4]: did not differ
Blood cholesterol increased, treatment-related AE [5]: 2 (3.8%) n (%)
Conjunctivitis, treatment-related AE [5]: 0 n (%)
Diarrhea, treatment-related AE [5]: 1 (1.9%) n (%)
Dry mouth, treatment-related AE [5]: 0 n (%)
Dyspepsia, treatment-related AE [5]: 0 n (%)
Erythema, treatment-related AE [5]: 0 n (%)
Fatigue, treatment-related AE [5]: 0 n (%)
Headache, treatment-related AE [5]: 0 n (%)
Insomnia, treatment-related AE [5]: 1 (1.9%) n (%)
Limb discomfort, treatment-related AE [5]: 0 n (%)
Low density lipoprotein increased, treatment-related AE [5]: 2 (3.8%) n (%)
Mouth ulceration, treatment-related AE [5]: 6 (11.3%) n (%)
Mucosal inflammation, treatment-related AE [5]: 0 n (%)
Neutropenia, treatment-related AE [5]: 0 n (%)
Oral pain, treatment-related AE [5]: 0 n (%)
Paresthesia oral, treatment-related AE [5]: 2 (3.8%) n (%)
Patients with AE(s), treatment-related [5]: 22 (41.5%) n (%)
Pruritus, treatment-related AE [5]: 0 n (%)
Stomatitis, treatment-related AE [5]: 0 n (%)
Thrombocytopenia, treatment-related AE [5]: 0 n (%)
Tongue ulceration, treatment-related AE [5]: 3 (5.7%) n (%)
Total AE(s), treatment-related [5]: 35 n (%)
Urinary tract infection, treatment-related AE [5]: 0 n (%)
